Source: patent publication US12195427B2, “MASP-2 inhibitors and methods of use” (priority 2018, dated 2025)

How the values were obtained:
human α-thrombin = human α-thrombin (Homo sapiens (Human), UniProt P00734); assay: Enzymatic Assay for Thrombin (Boc-VPR-AMC); format: biochemical
MASP-2 CCP2-SP = MASP-2 CCP2-SP (Homo sapiens (Human), UniProt O00187); assay: MASP-2 co-crystallization, X-ray crystallography and structure analysis (H-bonds, van der Waals contacts); set-up: van der Waals contact distance, MASP-2 HIS 483 atom CD2 / van der Waals contact distance, MASP-2 HIS 483 atom NE2 / van der Waals contact distance, SER 654 C to compound atom / van der Waals contact distance, SER 654 O to compound atom / van der Waals contact distance, TRP 655 C to compound atom / van der Waals contact distance, MASP-2 GLY 528 atom CA / van der Waals contact distance TRP 655 atom CZ3 / van der Waals contact distance TRP 655 atom N / van der Waals contact distance TRP 655 atom CE3 / van der Waals contact distance GLY 656 atom C / van der Waals contact distance GLY 656 atom CA / van der Waals contact distance GLY 656 atom O / van der Waals contact distance, MASP-2 TYR 607 atom CD1 / van der Waals contact distance, MASP-2 PRO 606 atom O / d(C3,CA1) / d(CA1,N1)2 / d(H4,O1) / d(H4,O2) / d(O1,O2) / d(CA1,O2) / d(CA6,O1) / d(CA6,O2) / d(CA1,C5) / d(O2,H3) / d(N2,C2) / d(CA5,N2) / d(N2,C4) / d(N2,C6) / d(N2,CA3) / d(N2,O3) / d(O4,H2): unit not given beside the values;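 for Ligand-pharmacophore element distance, pharmacophore element C2: distance from averaged pharmacophore element to bound ligand; missing value means element absent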;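 for Ligand-pharmacophore element distance, pharmacophore element C3: distance from averaged pharmacophore element to bound ligand; missing value means element absent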;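 for Ligand-pharmacophore element distance, pharmacophore element C4: distance from averaged pharmacophore element to bound ligand; missing value means element absent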;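 for Ligand-pharmacophore element distance, pharmacophore element C5: distance from averaged pharmacophore element to bound ligand; missing value means element absent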
How it was run: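 Inhibitor complexes were obtained by soaking crystals of E. coli-derived human MASP-2 CCP2-SP. Synchrotron diffraction at 1.0 wavelength, molecular replacement and partial refinement gave the models; one pose per ligand was chosen for contact analysis.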

[1] = Table A5-1 pharmacophore: distance between elements, S2/S1 region
[2] = Table A5-2 pharmacophore distance, S3/S4 region
[3] = Table A7-1, between pharmacophore elements of the bound compound
[4] = Table A8-6, nearest protein atom in cell to the left

Chain of MASP-2 CCP2-SP (O00187 445-686): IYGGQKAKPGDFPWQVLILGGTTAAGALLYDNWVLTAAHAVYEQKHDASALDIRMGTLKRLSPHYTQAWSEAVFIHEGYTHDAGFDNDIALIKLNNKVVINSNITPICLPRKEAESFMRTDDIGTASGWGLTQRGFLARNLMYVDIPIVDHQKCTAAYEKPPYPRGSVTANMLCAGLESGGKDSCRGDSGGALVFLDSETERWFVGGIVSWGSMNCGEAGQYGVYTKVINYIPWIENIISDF
Chain of MASP-2 CCP2-SP (O00187 364-432 partner): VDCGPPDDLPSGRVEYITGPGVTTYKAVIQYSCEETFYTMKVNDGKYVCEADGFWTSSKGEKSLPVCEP

- Ki (human α-thrombin): > 25 µM
- H-bond distance to MASP-2 ASP 627 atom OD1 (MASP-2 CCP2-SP; Table A1 (H-Bonds), ASP 627 OD1): 2.99
- H-bond distance to MASP-2 ASP 627 atom OD2 (MASP-2 CCP2-SP; Table A1 (H-Bonds), ASP 627 OD2): 2.95
- H-bond distance to MASP-2 GLN 665 atom O (MASP-2 CCP2-SP; Table A1 (H-Bonds), GLN 665 O): 3.31
- H-bond distance to MASP-2 GLY 656 atom N (MASP-2 CCP2-SP; Table A1 (H-Bonds), GLY 656 N): 3.13
- H-bond distance to MASP-2 GLY 656 atom O (MASP-2 CCP2-SP; Table A1 (H-Bonds), GLY 656 O): 2.94
- H-bond distance to MASP-2 SER 654 atom O (MASP-2 CCP2-SP; Table A1 (H-Bonds), SER 654 O): 2.95
- H-bond distance to MASP-2 SER 657 atom O (MASP-2 CCP2-SP; Table A1 (H-Bonds), SER 657 O): 2.77
- H-bond distance to MASP-2 SER 657 atom OG (MASP-2 CCP2-SP; Table A1 (H-Bonds), SER 657 OG): 2.94
- van der Waals contact distance, MASP-2 HIS 483 atom CD2 (MASP-2 CCP2-SP; Table A2-1): 3.69
- van der Waals contact distance, MASP-2 TYR 607 atom CD1 (MASP-2 CCP2-SP; Table A2-4): 3.89
- van der Waals contact distance, MASP-2 amino acid atom to compound atom (MASP-2 CCP2-SP; Table A2-5: TYR 607 (CE1, CE2, OH), PRO 608 (CD, CG), SER 611 (CA)): 3.89
- van der Waals contact distance, MASP-2 amino acid atom to compound atom (MASP-2 CCP2-SP; Table A2-9, ARG 630, AA atoms CG, CZ): 3.14
- van der Waals contact distance, VAL 653 CG1 to compound atom (MASP-2 CCP2-SP; Table A2-11): 3.81
- van der Waals contact distance TRP 655 atom CZ3 (MASP-2 CCP2-SP; Table A2-13, MASP-2 TRP 655 CZ3): 3.84
- van der Waals contact distance TRP 655 atom O (MASP-2 CCP2-SP; Table A2-13, MASP-2 TRP 655 O): 3.88
- Ligand-pharmacophore element distance, pharmacophore element C2 (MASP-2 CCP2-SP; Table A4-1, element C2): 1.86
- Ligand-pharmacophore element distance, pharmacophore element C3 (MASP-2 CCP2-SP; Table A4-1, element C3): 0
- Ligand-pharmacophore element distance, pharmacophore element C4 (MASP-2 CCP2-SP; Table A4-1, element C4): 0
- Ligand-pharmacophore element distance, pharmacophore element C5 (MASP-2 CCP2-SP; Table A4-1, element C5): 0
- Ligand-pharmacophore element distance, pharmacophore element C6 (MASP-2 CCP2-SP; Table A4-1, element C6): 0
- Ligand-pharmacophore element distance, pharmacophore element C7 (MASP-2 CCP2-SP; Table A4-1, element C7): 0
- Ligand-pharmacophore element distance, pharmacophore element CA1 (MASP-2 CCP2-SP; Table A4-1, element CA1): 1.27
- Ligand-pharmacophore element distance, pharmacophore element CA2 (MASP-2 CCP2-SP; Table A4-1, element CA2): 0.8
- Ligand-pharmacophore element distance, pharmacophore element CA3 (MASP-2 CCP2-SP; Table A4-1, element CA3): 0
- Ligand-pharmacophore element distance, pharmacophore element CA4 (MASP-2 CCP2-SP; Table A4-1, element CA4): 0
- Ligand-pharmacophore element distance, pharmacophore element CA5 (MASP-2 CCP2-SP; Table A4-1, element CA5): 0
- Ligand-pharmacophore element distance, pharmacophore element CA6 (MASP-2 CCP2-SP; Table A4-1, element CA6): 0
- d(CA1,N1) (MASP-2 CCP2-SP; [1]): 1.85
- d(CA1,O1) (MASP-2 CCP2-SP; [1]): 5.32
- d(CA1,O2) (MASP-2 CCP2-SP; [1]): 5.00
- d(H4,O1) (MASP-2 CCP2-SP; [1]): 4.89
- d(H4,O2) (MASP-2 CCP2-SP; [1]): 4.48
- d(O1,O2) (MASP-2 CCP2-SP; [1]): 3.20
- d(N2,C2) (MASP-2 CCP2-SP; [2]): 3.70
- d(N2,CA2) (MASP-2 CCP2-SP; [2]): 5.88
- d(O2,H3) (MASP-2 CCP2-SP; [2]): 4.97
- d(O2,N2) (MASP-2 CCP2-SP; [2]): 2.67
- a(CA1, O1, O2) (MASP-2 CCP2-SP; Table A6-1 pharmacophore angle): 102.43
- a(O1, O2, H4) (MASP-2 CCP2-SP; Table A6-1 pharmacophore angle): 140.37
- A(N1, CA1, O1) a) (MASP-2 CCP2-SP; Table A6-1 pharmacophore angle, all compounds with protonatable center N1 except Methyl-amino-pyridine): 176.16
- a(O1, O2, H3) (MASP-2 CCP2-SP; Table A6-2 pharmacophore angle): 148.70
- a(O1, O2, N2) (MASP-2 CCP2-SP; Table A6-2 pharmacophore angle): 132.46
- a(O2, N2, C2) (MASP-2 CCP2-SP; Table A6-2 pharmacophore angle): 139.14
- a(O2, N2, CA2) (MASP-2 CCP2-SP; Table A6-2 pharmacophore angle): 153.47
- Pharmacophore torsion angle a(H4, O1, O2, H3) (MASP-2 CCP2-SP; [3]): 47.74
- Pharmacophore torsion angle a(H4, O1, O2, N2) (MASP-2 CCP2-SP; [3]): 121.97
- Pharmacophore torsion angle a(N1, CA1, O2, H4) (MASP-2 CCP2-SP; [3]): −131.19
- Pharmacophore torsion angle a(O1, H4, O2, CA1) (MASP-2 CCP2-SP; [3]): −89.48
- Pharmacophore torsion angle a(O1, O2, N2, C2) (MASP-2 CCP2-SP; [3]): 129.30
- Pharmacophore torsion angle a(O1, O2, N2, CA2) (MASP-2 CCP2-SP; Table A7-2, between pharmacophore elements of the bound compound): 134.69
- Pharmacophore protein distance to MET_658 (first MET_658 column) (MASP-2 CCP2-SP; Table A8-6, 6th residue column, nearest protein atom in cell to the left): 1.94
- Pharmacophore protein distance to GLY_528 (MASP-2 CCP2-SP; [4]): 3.81
- Pharmacophore protein distance to PHE_529 (MASP-2 CCP2-SP; [4]): 2.97
- Pharmacophore protein distance to PRO_608 (MASP-2 CCP2-SP; [4]): 3.70
- Pharmacophore protein distance to SER_611 (MASP-2 CCP2-SP; [4]): 2.61
- Pharmacophore protein distance to TRP_655 (MASP-2 CCP2-SP; Table A8-6, pharmacophore elements C6, CA3, O3, H1, nearest protein atom in cell to the left): 3.64
SMILES: C[C@H](NC(=O)[C@H](N)C1Cc2ccccc2C1)C(=O)NCc1ccc2nc(N)[nH]c2c1 [compound 1059]
